Legend:
Assay in all cases: relative viability (nuclei count vs DMSO), 5 days (fraction); higher = more cells survive
CX-5461 + Olaparib = compound: Cc1cnc(CNC(=O)c2c(=O)c3ccc(N4CCCN(C)CC4)nc3n3c2sc2ccccc23)cn1 [CX-5461] + O=C(c1cc(Cc2n[nH]c(=O)c3ccccc23)ccc1F)N1CCN(C(=O)C2CC2)CC1 [Olaparib] (partner 8 µM)
Method in brief: (§1)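 Lung cancer cell lines, seeded in 1536-well plates, were treated the following day by pin tool with a single drug or with five library-drug doses (not always all listed) in √10 steps on top of a fixed anchor-drug dose. Cells were fixed and nuclei stained in one step after 5 days, and nuclei were counted. Relative viability is the nuclei count for treated wells divided by that for vehicle wells, reported as medians of duplicate plates.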

IMD-0354 + Dasatinib = compound: O=C(Nc1cc(C(F)(F)F)cc(C(F)(F)F)c1)c1cc(Cl)ccc1O [IMD-0354] + Cc1nc(Nc2ncc(C(=O)Nc3c(C)cccc3Cl)s2)cc(N2CCN(CCO)CC2)n1 [Dasatinib] (partner 0.075 µM)
Method in brief: as §1

CX-5461 + Pemetrexed = compound: Cc1cnc(CNC(=O)c2c(=O)c3ccc(N4CCCN(C)CC4)nc3n3c2sc2ccccc23)cn1 [CX-5461] + Nc1nc2[nH]cc(CCc3ccc(C(=O)N[C@@H](CCC(=O)O)C(=O)O)cc3)c2c(=O)[nH]1 [Pemetrexed] (partner 0.2 µM)
Method in brief: as §1

CX-5461 + Alpelisib = compound: Cc1cnc(CNC(=O)c2c(=O)c3ccc(N4CCCN(C)CC4)nc3n3c2sc2ccccc23)cn1 [CX-5461] + Cc1nc(NC(=O)N2CCC[C@H]2C(N)=O)sc1-c1ccnc(C(C)(C)C(F)(F)F)c1 [Alpelisib] (partner 2 µM)
Method in brief: as §1

Cell Line: UMC-11
- relative viability (CX-5461 + Olaparib; first compound 0.01 µM): 0.323
- relative viability (CX-5461 + Olaparib; first compound 0.03162 µM): 0.369
- relative viability (CX-5461 + Olaparib; first compound 0.1 µM): 0.321
- relative viability (CX-5461 + Olaparib; first compound 0.3162 µM): 0.395
- relative viability (CX-5461 + Olaparib; first compound 1 µM): 0.267
- relative viability (IMD-0354 + Dasatinib; first compound 0.04 µM): 0.541
- relative viability (IMD-0354 + Dasatinib; first compound 0.1265 µM): 0.416
- relative viability (IMD-0354 + Dasatinib; first compound 0.4 µM): 0.246
- relative viability (IMD-0354 + Dasatinib; first compound 1.265 µM): 0.171
- relative viability (IMD-0354 + Dasatinib; first compound 4 µM): 0.206
- relative viability (CX-5461 + Pemetrexed; first compound 0.01 µM): 0.825
- relative viability (CX-5461 + Pemetrexed; first compound 0.03162 µM): 0.871
- relative viability (CX-5461 + Pemetrexed; first compound 0.1 µM): 0.722
- relative viability (CX-5461 + Pemetrexed; first compound 0.3162 µM): 0.763
- relative viability (CX-5461 + Pemetrexed; first compound 1 µM): 0.408
- relative viability (CX-5461 + Alpelisib; first compound 0.01 µM): 0.932
- relative viability (CX-5461 + Alpelisib; first compound 0.03162 µM): 1.21
- relative viability (CX-5461 + Alpelisib; first compound 0.1 µM): 1.07
- relative viability (CX-5461 + Alpelisib; first compound 0.3162 µM): 0.956
- relative viability (CX-5461 + Alpelisib; first compound 1 µM): 0.391
